Results taken from patent US20250368651A1 (priority 2022, published 2025).
Where two headings read alike, the source gives them in different places.

Legend:
[1] = biological target: von Hippel-Lindau (VHL) E3 ligase (Homo sapiens, UniProt P40337); details: cited from earlier work
[2] = tested on: gene splicing; details: cited from earlier work
[3] = in vitro; details: human
[4] = in vitro; details: human; remark: listed apart in the source
[5] = in vitro; details: human; remark: listed apart in the source
[6] = biological target: DNA Seq6 (UGAAGGAAGGU as deoxyribonucleotides); experiment: FP binding assay, DNA Seq6; details: footnote c: FP assay for DNA Seq6; range = 95% CI; read-out: Kd
Method: (§1) All synthetic DNA and RNA oligomers were purchased from Integrated DNA Technologies and reconstituted in nuclease-free water (Invitrogen #AM9932) at 1 mM. The concentration of the oligonucleotides at ˜0.1 mM was calibrated with the A260 value measured by a NanoDrop ND-1000 (Thermo, Waltham, MA, USA) and the predicted extinction coefficient (http://www.oligoevaluator.com) using Lamber-Beer's Law. The risdiplam analogues (1 mM in DMSO) were diluted in 2× assay buffer (40 mM HEPES, 200 mM NaCl for RNA; 40 mM HEPES, 200 mM NaCl, 1 mM MgCl2 for DNA) to make a 1 μM 2× working solution.
(§2) A 1:2 dilution series (8 points) of each oligonucleotide was prepared in 20-30 μL water to desired concentrations (i.e., 1-128 μM). 20-30 μL 2× working solution containing the 2× assay buffer and the small-molecule ligand was added to each oligonucleotide sample in 1:1 (v/v) and mixed by pipetting for 4 times. For fluorescence polarization measurement, 20 μL of the above 1× working solution was transferred into a 384-well, black, F-bottom microplates (Greiner Bio-One) in duplicates or triplicates. The plate was equilibrated at room temperature for 5 min before being read using a microplate reader (SYNERGY H1, BioTek; Excitation/Emission=360/460 nm) at 25° C. For compound SMN-C5, a competitive binding assay was employed to measure an apparent Kd. SMN-C5 was 1:2 serial diluted for 10 concentration points starting at 750 μM in DMSO. A mixture of SMN-C2 (0.5 μM) and DNA Seq6 (25 μM) in 1× assay buffer was prepared and incubated at room temperature for 10 minutes. 3 μL of SMN-C5 solution at each concentration was added to a 42 μL SMN-C2/DNA Seq6 mixture and incubated at room temperature for 10 minutes. The mixture was then transferred into a microplate (20 μL each well) in duplicates for fluorescence polarization readout. The experimental data were analyzed using Prism 8 software (Graphpad Software, San Diego, CA, USA).

[7] = biological target: RNA Seq4 […]; experiment: FP binding assay, RNA Seq4
Method: as §1, §2

[8] = tested on: SMN2 exon 7 splicing; experiment: Cell-based SMN2 splicing assay in 293T cells (minigene); parameters: species or system human; details: Homo sapiens, HEK-293T
[9] = biological target: COVID RNA (SARS-CoV-2 RNA SL5 per FIG. 8); experiment: FP binding, Kd for COVID RNA
[10] = tested on: seq 1 (GAUGGAGAG), contains the AUG start codon; experiment: FP binding assay, SARS-CoV-2 seq 1 (start codon)
[11] = tested on: seq 1-RC; experiment: FP binding assay, reverse complement of seq 1
[12] = tested on: SARS-CoV-2 SL5 RNA; experiment: Deconvolution of the RNA-binding site within SL5; details: FIG. 7D
[13] = tested on: SARS-CoV-2 minigene mRNA (5′ and 3′ UTRs, Gaussia luciferase); experiment: SARS-CoV-2 minigene HEK293 cell model, RT-qPCR of viral minigene mRNA; assay type: cell-based; details: 24 hours
[14] = tested on: SARS-CoV-2 5′ UTR; experiment: SARS-CoV-2 5′ UTR expressing 293T cells (Gaussia luciferase cassette), RNA reduction; assay type: cell-based
[15] = tested on: SMN2 gene vs forkhead box M1 (FoxM1) gene; details: cited from earlier work
[16] = biological target: 5′-biotinylated RNA Seq4; experiment: Surface plasmon resonance (SPR) assay, RNA Seq4; assay type: binding; details: footnote b: SPR assay for RNA Seq4
Method: SPR experiments were performed on a Biacore T200 (GE Healthcare) instrument at 25° C. using streptavidin pre-coated SA sensor chips (GE Healthcare). The running buffer composed of 10 mM HEPES, 100 mM NaCl, 0.05% Tween 20 (w/v), 5 mM EDTA, 0.1% (v/v) DMSO at pH 6.8 was prepared freshly, filtered through the […] PVDF membrane prior to use. 5′-biotinylated RNA Seq4 was purchased from GenScript and dissolved in nuclease-free water to a concentration of 100 μM. For immobilization of the biotinylated RNA, the sensor chip was firstly conditioned with 3 consecutive 1 min injections of high salt solution (50 mM NaOH, 1M NaCl) at a flow rate of […]. Next, the biotinylated RNA was diluted 1000× in running buffer (100 nM) and applied over the streptavidin sensor chip surface at a flow rate of 10 μL/min to achieve immobilization level of about 800 RU. Finally, alkyne-PEG-biotin (50 μM in running buffer) was injected (1 min, […]) to block remaining streptavidin surface binding sites. The kinetics analysis was performed following the BiaControl Software Wizard Kinetics protocol. […] All monitored resonance signals were subtracted with signals from a non-binding reference channel. Kinetic values (Kd, ka, kd) were calculated using the BiaEvaluation Software Binding Affinity protocol with 1:1 fitting. […]

[17] = biological target: DNA Seq6; experiment: Competitive FP binding assay (displacement of SMN-C2 from DNA Seq6); details: footnote c: FP assay for DNA Seq6; competition with SMN-C2 (0.5 μM) and DNA Seq6 (25 μM); read-out: Kd (apparent, competitive FP)
Method: as §2

[18] = biological target: dsRNA Seq18 (5′ splice site of SMN2 exon 7 and U1 snRNA duplex); details: NMR chemical shift assay; cited from earlier work
[19] = cell-based SMN2 splicing assay in 293T cells, read-out: SMN2 EC50

von Hippel-Lindau (VHL) E3 ligase, sequence (P40337 54-213 limits assumed, species assumed): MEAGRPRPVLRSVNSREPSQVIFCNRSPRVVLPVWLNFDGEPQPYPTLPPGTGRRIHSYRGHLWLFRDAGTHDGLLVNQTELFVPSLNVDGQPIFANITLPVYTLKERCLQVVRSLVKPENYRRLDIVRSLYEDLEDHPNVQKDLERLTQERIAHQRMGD
von Hippel-Lindau (VHL) E3 ligase, sequence (Q15369 17-112 partner limits assumed, species assumed): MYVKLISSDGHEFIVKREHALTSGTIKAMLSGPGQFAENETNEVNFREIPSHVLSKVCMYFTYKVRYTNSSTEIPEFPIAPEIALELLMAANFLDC
von Hippel-Lindau (VHL) E3 ligase, sequence (Q15370 whole entry partner, species assumed): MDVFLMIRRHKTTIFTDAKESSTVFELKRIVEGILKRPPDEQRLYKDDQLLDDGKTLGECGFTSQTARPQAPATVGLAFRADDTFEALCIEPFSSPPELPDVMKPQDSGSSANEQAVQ

## Cc1cc([C@H](C(=O)N2C[C@H](O)C[C@H]2C(=O)N[C@@H](CC(=O)N2CCC(C#Cc3ccc(C(=O)N[C@H]4C(C)(C)[C@H](Oc5ccc(C#N)c(Cl)c5)C4(C)C)cc3)CC2)c2ccccc2)C(C)C)on1 [ARD-266]
[1]
  Kd: micromolar

## CCN1CCN(c2cc(C)c3nc(-c4cc5c(C)nc(C)cn5n4)cc(=O)n3c2)CC1 [Compound C3, 2-(4,6-dimethylpyrazolo[1,5-a]pyrazin-2-yl)-7-(4-ethylpiperazin-1-yl)-9-methyl-4H-pyrido[1,2-a]pyrimidin-4-one, reference compound]
[2]
  number of genes whose splicing is significantly affected: 13 genes
[3]
  CC50: > 30000 nM
[4]
  CC50: > 30000 nM
[5]
  CC50: > 30000 nM

## Cc1cn2cc(-c3cc4ccc(N5CCN[C@@H](C)C5)cc4oc3=O)nc2c(C)n1 [Compound C4, (S)-3-(6,8-dimethylimidazo[1,2-a]pyrazin-2-yl)-7-(3-methylpiperazin-1-yl)-2H-chromen-2-one, reference compound]
[6]
  Kd: 2900 ± 300 nM
[7]
  Kd: 25400 ± 7300 nM
[8]; Table 3, read-out: SMN2 Splicing EC50
  EC50: 13.9 ± 2.6 nM
[8]; [19]
  EC50: 14 ± 3 nM
[9]; Table 3
  Kd: 1300 ± 300 nM
[9]; Table 4
  Kd: 1300 ± 300 nM
[10]
  binding to seq 1: preferentially binds to seq 1
[11]
  binding to seq 1-RC: does not bind
[5]
  CC50: > 13000 nM

## O=c1oc2cc(N3CCNCC3)ccc2cc1-c1cn2ccc(F)cc2n1 [Compound C30, 3-(7-fluoroimidazo[1,2-a]pyridin-2-yl)-7-(piperazin-1-yl)-2H-chromen-2-one]
[9]; Table 3
  Kd: 210 ± 40 nM
[9]; Table 4
  Kd: 210 ± 400 nM
[12]
  binding site within SL5: selectively binds to the RNA structure containing the bulged G in SL5

## CCOC(=O)C1=C(Nc2ccccc2)S/C(=C\c2ccc(OCCOCCn3cc(COCCOCCOCCOCCN4CCN(c5ccc6cc(-c7cn8ccc(F)cc8n7)c(=O)oc6c5)CC4)nn3)c(O)c2)C1=O [Compound C47]
[13]; 25 μM, normalized with GAPDH
  reduction of viral minigene mRNA level: ~50%
[13]; different concentrations
  effect on RNA level (RT-qPCR): reduce the RNA level in a dose-dependent manner
[14]
  maximum potency / activity (RNA reduction level): between those of C64 and C65

## CCc1nc(C)cn2nc(-c3cc(=O)n4cc(C5CCN(C)CC5)cc(C)c4n3)cc12 [RG-7800]
[15]
  sensitivity of SMN2 gene compared to FoxM1: ~10 times

## Cc1cn2cc(-c3cc(=O)n4cc(N5CCN(C)CC5)ccc4n3)cc(F)c2n1 [SMN-C5, 2-(8-fluoro-2-methylimidazo[1,2-a]pyridin-6-yl)-7-(4-methylpiperazin-1-yl)-4H-pyrido[1,2-a]pyrimidin-4-one]
[16]
  Kd: 8000 nM
[17]
  Kd: 5800 ± 2500 nM
[8]; [19]
  EC50: 59 ± 9 nM
[18]
  Kd: 28000 ± 9000 nM
